{"source": "patent US9724397B2", "about": "“Sustained release formulations comprising very low molecular weight polymers” (IPSEN PHARMA S.A.S., priority 2006, dated 2017)", "experiment": "In-vivo release assay in Beagle dogs with a VLMW polymer not end-capped", "conditions": "10% BIM21003 in PLGA 50/50 ended by carboxylic acid group (J001/3000013), intramuscular, about 3.6 mg per animal, RIA", "protocol": "An in-vivo assay was performed with a semi-solid formulation of 10% BIM21003 using a PLGA 50/50 ended by a carboxylic acid group (J001/3000013 batch, see table 1). The preparation of the formulation was achieved by a push-pull kneading process with 2 syringes at about 50° C. as described in example 6. The mixture (bulk product) was conditioned in a 0.3 ml single-dose syringes coupled with 20×1.4 mm needles thereafter packed in individual aluminium sealed bags, and sterilized by gamma-irradiation at 25 kGy in dry ice.\nSix male Beagle dogs were administered intramuscularly with single-dose syringes previously heated at 50° C. for 3 min in order to improve its fluidity and facilitate its injection. Syringes were weighted before and after administration, and the injected dose of BIM21003 was calculated to be about 3.6 mg per animal.\nFour-ml blood samples were obtained from cephalic veins at specified time intervals post-administration. The blood samples were placed in tubes containing an anticoagulant (15% EDTA.K3 aqueous solution) and a preservative (Trasylol®). After centrifugation, plasma was removed and samples were stored below −20° C. until RIA analysis."}
{"smiles": "CC(C)C[C@H](NC(=O)[C@@H](Cc1c[nH]c2ccccc12)NC(=O)[C@H](Cc1ccc(O)cc1)NC(=O)[C@H](CO)NC(=O)[C@H](Cc1c[nH]c2ccccc12)NC(=O)[C@H](Cc1c[nH]cn1)NC(=O)[C@@H]1CCC(=O)N1)C(=O)N[C@@H](CCCNC(=N)N)C(=O)N1CCC[C@H]1C(=O)NCC(N)=O", "note": "[BIM-21003, triptorelin]", "values": [{"measurement": "BIM-21003 plasma levels after 3 days post-administration", "value": "below the limit of quantification"}]}
